Measurements from paper PMC6857582, “Characterization of aminopeptidase encoding gene anp-1 and its association with development in Caenorhabditis elegans” (PeerJ, 2019).

What was measured:
[1] = target: T1, rANP-1 (AlaNyl aminopeptidase 1) (Caenorhabditis elegans, UniProt Q22317); assay: L-Leu-pNA hydrolysis, absorbance at […] nm; type: biochemical; conditions: inhibitor concentration not given; pre-incubation with inhibitor; substrate L-Leu-pNA; refolded fragment
T1 construct: gene anp-1
T1 sequence (Q22317 93-559): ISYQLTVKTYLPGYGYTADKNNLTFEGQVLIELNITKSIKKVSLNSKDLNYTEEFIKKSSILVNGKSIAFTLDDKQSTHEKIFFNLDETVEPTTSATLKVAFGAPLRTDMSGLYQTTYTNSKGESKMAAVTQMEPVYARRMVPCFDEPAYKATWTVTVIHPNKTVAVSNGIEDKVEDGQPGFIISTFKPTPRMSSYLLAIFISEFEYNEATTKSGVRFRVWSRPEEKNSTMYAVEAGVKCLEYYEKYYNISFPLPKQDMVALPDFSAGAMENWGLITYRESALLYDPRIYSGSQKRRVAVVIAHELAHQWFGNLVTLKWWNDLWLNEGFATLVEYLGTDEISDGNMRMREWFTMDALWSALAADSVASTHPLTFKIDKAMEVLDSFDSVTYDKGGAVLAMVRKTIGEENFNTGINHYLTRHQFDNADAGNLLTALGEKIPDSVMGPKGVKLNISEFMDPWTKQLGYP

[2] = target: T1, rANP-1 (AlaNyl aminopeptidase 1); assay: p-nitroanilide release, absorbance at […] nm; type: biochemical; conditions: refolded fragment

Row | SMILES | % reduction of activity [1] | p-nitroanilide release, absorbance at 405 nm [2]
1 | CC(C)C[C@@H](N)[C@H](O)C(=O)N[C@H](C(=O)N[C@H](C(=O)N[C@@H](CC(=O)O)C(=O)O)C(C)C)C(C)C [amastatin] | ~ 55% | –
2 | CC(C)C[C@H](NC(=O)[C@@H](O)[C@H](N)Cc1ccccc1)C(=O)O [bestatin] | ~ 46% | –
3 | CC(C)C[C@H](N)C(=O)Nc1ccc([N+](=O)[O-])cc1 [L-leucine-p-nitroanilide] | – | Aminopeptidase activity of rANP-1 protein was measured using L-Leu-pNA as substrate
